Laboratory results taken from PubChem BioAssay (NCI).
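Growth conditions: 96-well plates. Treatment: test compound, 48 hours, 5 concentrations. Analysis: linear interpolation between bracketing concentrations; unreached endpoints set to highest concentration. GI50: concentration for 50% inhibition of growth. At the TGI there is no net growth.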

Columns and labels:
Test in all cases: NCI tumour cell line growth inhibition, 48 h
[1] = test system: PC-3 prostate
[2] = test system: A498 renal
[3] = test system: SN12C renal
[4] = test system: NCI-H226 lung
[5] = test system: BT-549 breast
[6] = test system: SK-MEL-5 melanoma
[7] = test system: HOP-92 NSCLC
[8] = test system: MALME-3M melanoma
[9] = test system: 786-0 renal
[10] = test system: UACC-62 melanoma
[11] = test system: UACC-257 melanoma
[12] = test system: NCI-H23 lung
[13] = test system: NCI-H522 lung
[14] = test system: CAKI-1 renal
[15] = test system: HCT-15 colon
[16] = test system: SK-OV-3 ovarian
[17] = test system: SK-MEL-28 melanoma
[18] = test system: OVCAR-4 ovarian
[19] = test system: HOP-62 NSCLC
[20] = test system: OVCAR-8 ovarian
[21] = test system: HL-60(TB) leukemia
[22] = test system: SK-MEL-2 melanoma
[23] = test system: HCC-2998 colon
[24] = test system: RXF 393 renal
[25] = test system: KM12 colon
[26] = test system: CCRF-CEM leukemia
[27] = test system: A549 NSCLC
[28] = test system: SNB-19 CNS
[29] = test system: K-562 leukemia
[30] = test system: OVCAR-3 ovarian
[31] = test system: RPMI-8226 leukemia
[32] = test system: M14 melanoma
[33] = test system: OVCAR-5 ovarian
[34] = test system: UO-31 renal
[35] = test system: LOX IMVI melanoma
[36] = test system: TK-10 renal
[37] = test system: SNB-75 CNS
[38] = test system: HT29 colon
[39] = test system: U251 CNS
[40] = test system: ACHN renal
[41] = test system: MDA-MB-231 breast
[42] = test system: MCF7 breast
[43] = test system: SR leukemia
[44] = test system: NCI-H460 lung
[45] = test system: COLO 205 colon
[46] = test system: SF-268 CNS
[47] = test system: IGROV1 ovarian
[48] = test system: SF-539 CNS
[49] = test system: DU-145 prostate
[50] = test system: SF-295 CNS
[51] = test system: MOLT-4 leukemia
[52] = test system: HCT-116 colon
[53] = test system: EKVX NSCLC
[54] = test system: MDA-MB-435
[55] = test system: T-47D breast
[56] = test system: SW-620 colon
[57] = test system: HS 578T breast
[58] = test system: NCI/ADR-RES ovarian

COc1ccc2c(c1OC)-c1c(c3ccc([N+](=O)[O-])cc3c(=O)n1CCCN)C2=O
GI50 [1]: 4.59 µM
TGI [1]: 10.5 µM
GI50 [2]: 3.03 µM
TGI [2]: 14.3 µM
GI50 [3]: 3.79 µM
TGI [3]: 7.86 µM
GI50 [4]: 3.95 µM
TGI [4]: 8.79 µM
GI50 [5]: 4.19 µM
TGI [5]: 9.24 µM
GI50 [6]: 4.33 µM
TGI [6]: 8.82 µM
GI50 [7]: 12.3 µM
TGI [7]: 27.1 µM
GI50 [8]: 4.97 µM
TGI [8]: 10.5 µM
GI50 [9]: 4.76 µM
TGI [9]: 9.22 µM
GI50 [10]: 3.52 µM
TGI [10]: 7.32 µM
GI50 [11]: 4.97 µM
TGI [11]: 9.74 µM
GI50 [12]: 4.7 µM
TGI [12]: 9.19 µM
GI50 [13]: 3.54 µM
TGI [13]: 9.33 µM
GI50 [14]: 9.49 µM
TGI [14]: 24.7 µM
GI50 [15]: 3.37 µM
TGI [15]: 7.11 µM
GI50 [16]: 7.9 µM
TGI [16]: 17.6 µM
GI50 [17]: 5.34 µM
TGI [17]: 10.4 µM
GI50 [18]: 5.49 µM
TGI [18]: 12.1 µM
GI50 [19]: 10.7 µM
TGI [19]: 23.9 µM
GI50 [20]: 3.53 µM
TGI [20]: 12.9 µM
GI50 [21]: 1.35 µM
TGI [21]: 2.63 µM
GI50 [22]: 4.56 µM
TGI [22]: 9.77 µM
GI50 [23]: 3.87 µM
TGI [23]: 7.8 µM
GI50 [24]: 4.32 µM
TGI [24]: 10.1 µM
GI50 [25]: 4.31 µM
TGI [25]: 10.7 µM
GI50 [26]: 1.27 µM
TGI [26]: 3.64 µM
GI50 [27]: 4.37 µM
TGI [27]: 9.27 µM
TGI [28]: > 20.2 µM
GI50 [29]: 1.01 µM
TGI [29]: 3.94 µM
GI50 [30]: 16.2 µM
TGI [30]: 32.6 µM
GI50 [31]: 1.01 µM
TGI [31]: 3.32 µM
GI50 [32]: 7.27 µM
TGI [32]: 20.8 µM
GI50 [33]: 5.31 µM
TGI [33]: 9.74 µM
GI50 [34]: 3.81 µM
TGI [34]: 7.89 µM
GI50 [35]: 3.18 µM
TGI [35]: 7.26 µM
GI50 [36]: 5.72 µM
TGI [36]: 12 µM
TGI [37]: 1.56 µM
GI50 [38]: 1.6 µM
TGI [38]: 8 µM
GI50 [39]: 1.83 µM
TGI [39]: 5.76 µM
GI50 [40]: 0.749 µM
TGI [40]: 3.33 µM
GI50 [41]: 1.87 µM
TGI [41]: 3.95 µM
GI50 [42]: 1.89 µM
TGI [42]: 13.9 µM
GI50 [43]: 0.1 µM
TGI [43]: 0.272 µM
GI50 [44]: 3.47 µM
TGI [44]: 12.3 µM
GI50 [45]: > 100 µM
TGI [45]: > 100 µM
GI50 [46]: 3.54 µM
TGI [46]: 13.6 µM
GI50 [47]: 2.02 µM
TGI [47]: 6.78 µM
GI50 [48]: 4.42 µM
TGI [48]: 9.02 µM
GI50 [49]: 3.36 µM
TGI [49]: 7.8 µM
GI50 [50]: 5.72 µM
TGI [50]: 11.5 µM
GI50 [51]: 0.692 µM
TGI [51]: 3.68 µM
GI50 [52]: 4.99 µM
TGI [52]: 9.23 µM
GI50 [53]: 4.98 µM
TGI [53]: 11 µM
GI50 [54]: 12.7 µM
TGI [54]: 28.2 µM
TGI [55]: > 20.1 µM
GI50 [56]: 0.573 µM
TGI [56]: 4.81 µM
GI50 [57]: 5.32 µM
TGI [57]: 12 µM
GI50 [58]: 4.83 µM
TGI [58]: 9.76 µM
